Measurements as given in PubChem BioAssay (NCI).
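Method: 48-hour compound exposure of cells in 96-well plates, five concentrations, linear interpolation of endpoints. TGI is the concentration that stops growth completely.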

How the values were obtained:
Assay in all cases: NCI tumour cell line growth inhibition, 48 h
A498 renal = test system: A498 renal
CAKI-1 renal = test system: CAKI-1 renal
CCRF-CEM leukemia = test system: CCRF-CEM leukemia
HCT-116 colon = test system: HCT-116 colon
HS 578T breast = test system: HS 578T breast
KM12 colon = test system: KM12 colon
LOX IMVI melanoma = test system: LOX IMVI melanoma
MDA-MB-231 breast = test system: MDA-MB-231 breast
MDA-N = test system: MDA-N
NCI-H226 lung = test system: NCI-H226 lung
NCI/ADR-RES ovarian = test system: NCI/ADR-RES ovarian
OVCAR-5 ovarian = test system: OVCAR-5 ovarian
PC-3 prostate = test system: PC-3 prostate
SF-268 CNS = test system: SF-268 CNS
SNB-19 CNS = test system: SNB-19 CNS
SR leukemia = test system: SR leukemia

`CCOC(=S)SC/C(=N\OC(C)(C)OC)c1ccccc1` was tested, and the TGI (A498 renal) was over 100 µM, the TGI (CAKI-1 renal) was over 100 µM and the TGI (CCRF-CEM leukemia) was 44.5 µM. For the same compound, the TGI (HCT-116 colon) was 77.5 µM, the TGI (HS 578T breast) was over 100 µM and the TGI (KM12 colon) was over 100 µM. The TGI (LOX IMVI melanoma) was 31.2 µM, the TGI (MDA-MB-231 breast) was over 100 µM and the TGI (MDA-N) was over 100 µM. It also gave a TGI (NCI-H226 lung) of over 100 µM, a TGI (NCI/ADR-RES ovarian) of over 100 µM and a TGI (OVCAR-5 ovarian) of over 100 µM. For the same compound, the TGI (PC-3 prostate) was over 100 µM, the TGI (SF-268 CNS) was over 100 µM and the TGI (SNB-19 CNS) was over 100 µM. It also gave a TGI (SR leukemia) of 35.9 µM.
With `CN1CCN(c2ccc3nc(-c4ccc5nc(-c6ccc(N(C)CCCl)cc6)[nH]c5c4)[nH]c3c2)CC1` the TGI (A498 renal) was 6.74 µM, the TGI (CAKI-1 renal) was 17.1 µM and the TGI (CCRF-CEM leukemia) was 0.647 µM. The TGI (HCT-116 colon) was 14.4 µM, the TGI (HS 578T breast) was 0.58 µM and the TGI (KM12 colon) was 2.31 µM. The TGI (LOX IMVI melanoma) was 0.218 µM, the TGI (MDA-MB-231 breast) was 22.3 µM and the TGI (MDA-N) was 0.511 µM. It also gave a TGI (NCI-H226 lung) of 5.2 µM, a TGI (NCI/ADR-RES ovarian) of over 100 µM and a TGI (OVCAR-5 ovarian) of 12.4 µM. For the same compound, the TGI (PC-3 prostate) was 0.383 µM, the TGI (SF-268 CNS) was 11 µM and the TGI (SNB-19 CNS) was 1.01 µM. The TGI (SR leukemia) was 12.5 µM.
Work on `COc1ccc(CCN2CCOCC2)cc1` yielded a TGI (A498 renal) of over 100 µM, a TGI (CAKI-1 renal) of over 100 µM and a TGI (CCRF-CEM leukemia) of over 100 µM. It also gave a TGI (HCT-116 colon) of over 100 µM, a TGI (HS 578T breast) of over 100 µM and a TGI (KM12 colon) of over 100 µM. For the same compound, the TGI (LOX IMVI melanoma) was over 100 µM, the TGI (MDA-MB-231 breast) was over 100 µM and the TGI (MDA-N) was over 100 µM. It also gave a TGI (NCI-H226 lung) of over 100 µM, a TGI (NCI/ADR-RES ovarian) of over 100 µM and a TGI (OVCAR-5 ovarian) of over 100 µM. The TGI (PC-3 prostate) was over 100 µM, the TGI (SF-268 CNS) was over 100 µM and the TGI (SNB-19 CNS) was over 100 µM. For the same compound, the TGI (SR leukemia) was over 100 µM.
With `CC(=N\N=C\c1ccccn1)/C(C)=N/N=C/c1ccccn1` the TGI (A498 renal) was over 100 µM, the TGI (CAKI-1 renal) was over 100 µM and the TGI (CCRF-CEM leukemia) was over 100 µM. For the same compound, the TGI (HCT-116 colon) was over 100 µM, the TGI (HS 578T breast) was over 100 µM and the TGI (KM12 colon) was over 100 µM. For the same compound, the TGI (LOX IMVI melanoma) was over 100 µM, the TGI (MDA-MB-231 breast) was over 100 µM and the TGI (MDA-N) was over 100 µM. It also gave a TGI (NCI-H226 lung) of over 100 µM, a TGI (NCI/ADR-RES ovarian) of over 100 µM and a TGI (OVCAR-5 ovarian) of over 100 µM. For the same compound, the TGI (PC-3 prostate) was over 100 µM, the TGI (SF-268 CNS) was over 100 µM and the TGI (SNB-19 CNS) was over 100 µM. It also gave a TGI (SR leukemia) of over 100 µM.
`CCOC(=O)c1[nH]n(-c2ccccc2)c(=O)c1C=NC(=S)C(N)=S` showed a TGI (A498 renal) of over 100 µM, a TGI (CAKI-1 renal) of over 100 µM and a TGI (CCRF-CEM leukemia) of over 100 µM. For the same compound, the TGI (HCT-116 colon) was 44.6 µM, the TGI (HS 578T breast) was over 100 µM and the TGI (KM12 colon) was over 100 µM. It also gave a TGI (LOX IMVI melanoma) of over 100 µM, a TGI (MDA-MB-231 breast) of over 100 µM and a TGI (MDA-N) of over 100 µM. For the same compound, the TGI (NCI-H226 lung) was over 100 µM, the TGI (NCI/ADR-RES ovarian) was over 100 µM and the TGI (OVCAR-5 ovarian) was over 100 µM. It also gave a TGI (PC-3 prostate) of over 100 µM, a TGI (SF-268 CNS) of over 100 µM and a TGI (SNB-19 CNS) of over 100 µM. The TGI (SR leukemia) was over 100 µM.
`O=C1O[C@H](COC(=O)c2ccccc2)[C@@H](OC(=O)c2ccccc2)C=C1OC(=O)c1ccccc1` showed a TGI (A498 renal) of over 100 µM, a TGI (CAKI-1 renal) of 51.2 µM and a TGI (CCRF-CEM leukemia) of 41.9 µM. For the same compound, the TGI (HCT-116 colon) was 32 µM, the TGI (HS 578T breast) was over 100 µM and the TGI (KM12 colon) was over 100 µM. It also gave a TGI (LOX IMVI melanoma) of 39.3 µM, a TGI (MDA-MB-231 breast) of 36.2 µM and a TGI (MDA-N) of over 100 µM. It also gave a TGI (NCI-H226 lung) of 45.6 µM, a TGI (NCI/ADR-RES ovarian) of 38.8 µM and a TGI (OVCAR-5 ovarian) of 40.9 µM. The TGI (PC-3 prostate) was 62.7 µM, the TGI (SF-268 CNS) was 36.8 µM and the TGI (SNB-19 CNS) was 35.6 µM. For the same compound, the TGI (SR leukemia) was 46.9 µM.
